Assay results taken from the NIST ThermoML archive (doi:10.1016/j.jct.2015.09.018).

Conditions: 101.33 kPa, Crystal 3; for molar entropy: relaxation calorimeter

[O-2].[O-2].[Ti+4] [titanium(IV) oxide]
Conditions | molar entropy [J/K/mol]
0.5 K | 0.000413
1 K | 0.000882
1.5 K | 0.00146
2 K | 0.00221
2.5 K | 0.00316
3 K | 0.00439
3.5 K | 0.00591
4 K | 0.00779
4.5 K | 0.01
5 K | 0.0127
5.5 K | 0.0158
6 K | 0.0194
6.5 K | 0.0234
7 K | 0.0279
7.5 K | 0.0328
8 K | 0.0383
8.5 K | 0.0442
9 K | 0.0506
9.5 K | 0.0575
10 K | 0.0649
11 K | 0.081
12 K | 0.0989
13 K | 0.119
14 K | 0.141
15 K | 0.164
16 K | 0.19
17 K | 0.218
18 K | 0.248
19 K | 0.28
20 K | 0.314
25 K | 0.524
30 K | 0.798
35 K | 1.14
40 K | 1.55
45 K | 2.02
50 K | 2.55
55 K | 3.15
60 K | 3.8
65 K | 4.5
70 K | 5.25
75 K | 6.04
80 K | 6.87
85 K | 7.74
90 K | 8.65
95 K | 9.59
100 K | 10.56
110 K | 12.56
120 K | 14.64
130 K | 16.77
140 K | 18.94
150 K | 21.13
160 K | 23.34
170 K | 25.56
180 K | 27.77
190 K | 29.99
200 K | 32.19
210 K | 34.38
220 K | 36.55
230 K | 38.69
240 K | 40.82
250 K | 42.91
260 K | 44.98
270 K | 47.03
273.15 K | 47.66
280 K | 49.04
290 K | 51.02
298.15 K | 52.61
300 K | 52.97
305 K | 53.94

Conditions | mass density [kg/m3]
298.15 K, X-ray diffraction | 4130
